Experimental data: paper PMC8082539 (ACS chemical biology, 2021)

Biological target: T1, apocarotenoid oxygenase ACO from Synechocystis (Synechocystis sp. PCC 6803, UniProt P74334)
T1 sequence (P74334 1-490): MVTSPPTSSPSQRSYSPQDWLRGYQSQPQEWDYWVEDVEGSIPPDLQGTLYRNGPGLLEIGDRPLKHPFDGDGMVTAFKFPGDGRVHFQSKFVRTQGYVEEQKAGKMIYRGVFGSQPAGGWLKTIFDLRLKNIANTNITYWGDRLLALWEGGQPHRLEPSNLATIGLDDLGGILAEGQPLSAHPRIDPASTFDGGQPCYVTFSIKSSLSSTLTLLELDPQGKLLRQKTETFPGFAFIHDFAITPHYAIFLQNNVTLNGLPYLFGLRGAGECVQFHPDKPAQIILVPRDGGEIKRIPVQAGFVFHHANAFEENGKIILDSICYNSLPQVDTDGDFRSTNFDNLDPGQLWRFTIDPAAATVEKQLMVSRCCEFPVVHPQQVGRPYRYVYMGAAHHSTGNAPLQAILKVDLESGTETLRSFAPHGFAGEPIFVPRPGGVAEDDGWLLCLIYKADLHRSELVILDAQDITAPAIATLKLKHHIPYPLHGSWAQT
Assay: HPLC at […] nm, UV-visible spectra
Format: biochemical
Settings: product 3-hydroxy-retinal

CC1=C(/C=C/C(C)=C/C=C/C(C)=C/C=C/C=C(\C)C=O)C(C)(C)C[C@H](O)C1 [3-hydroxy-β-apo-12’-carotenal]
HPLC at 360 nm, UV-visible spectra: first incubated 3-hydroxy-β-apo-12’-carotenal with the bacterial ACO to produce 3-hydroxy-retinal
